Results from US4217268A, “Synthesis of peptides” (priority 1978, dated 1980).
Bridge positions count the residues as written; N and C are the ends. Peptide text beside a SMILES is read from it.

Assay: Calcitonin potency assay of the purified product (MRC units per mg)
Conditions: purified freeze-dried product of Example 1

CC(C)C[C@H](NC(=O)[C@H](CCCCN)NC(=O)CNC(=O)[C@H](CC(C)C)NC(=O)[C@@H](NC(=O)[C@@H]1CSSC[C@H](N)C(=O)N[C@@H](CC(N)=O)C(=O)N[C@@H](CC(C)C)C(=O)N[C@@H](CO)C(=O)N[C@@H]([C@@H](C)O)C(=O)N1)C(C)C)C(=O)N[C@@H](CO)C(=O)N[C@@H](CCC(N)=O)C(=O)N[C@@H](CCC(=O)O)C(=O)N[C@@H](CC(C)C)C(=O)N[C@@H](Cc1c[nH]cn1)C(=O)N[C@@H](CCCCN)C(=O)N[C@@H](CC(C)C)C(=O)N[C@@H](CCC(N)=O)C(=O)N[C@H](C(=O)N[C@@H](Cc1ccc(O)cc1)C(=O)N1CCC[C@H]1C(=O)N[C@@H](CCCNC(=N)N)C(=O)N[C@H](C(=O)N[C@@H](CC(N)=O)C(=O)N[C@H](C(=O)NCC(=O)N[C@@H](CO)C(=O)NCC(=O)N[C@H](C(=O)N1CCC[C@H]1C(N)=O)[C@@H](C)O)[C@@H](C)O)[C@@H](C)O)[C@@H](C)O [des-Ser^2-SCT, des-ser^2 -salmon calcitonin] (H-CNLSTCVLGKLSQELHKLQTYPRTNTGSGTP-NH2; disulfide 1-6)
biological potency (assayed MRC units per mg): 5600 MRC units per mg
